# Measured values published in patent publication US8592621B2, “Precursor compounds of sweet taste receptor antagonists for the prevention or treatment of disease” (Symrise AG, priority 2009, dated 2013).
# Columns and labels:
# [1] = test system: sweet taste impression of sweet tasting substances; test: Influence on the sensorial quality of sweet substances (expert panel rating of sweet taste impression); type: in vivo; conditions: for Sweet taste impression (1-10) Sample (B): scale 1 [not sweet] to 10 [extremely sweet]; for Change in sweet taste impression [%]: sample B vs sample A
# From the text: In order to quantify the influence of inventive compounds of formula (I) on the sensorial characteristics of various sweet tasting substances, in each case a sample (A) (sweet tasting substance) and a sample (B) (sweet tasting substance+compound of formula (I) or lactisole (as standard)) were sensorially assessed by a group of experts and rated according to their sweet taste impression on a scale of 1 [not sweet] to 10 [extremely sweet]. Then in each case from the average values of the assessments of samples (A) and (B) the change (in %) in the sweet taste impression was calculated.
# T1R2/T1R3 receptors [2] = molecular target: T1, T1R2/T1R3 receptors (Homo sapiens, UniProt Q7RTX0+Q8TE23); test: Calcium mobilization (FLIPR) in HEK293TREX cells expressing human TAS1R2/TAS1R3; type: cell-based; conditions: in the presence of naringin dihydrochalcone; FIG. 3
# T1 construct: expressed in transfected cells; TAS1R2 from pCDNA5-FRT, TAS1R3 from pCDNA3-TO (tetracycline-induced), G15-Gi3 from pIRESpuro3
# T1 sequence (Q8TE23 20-839): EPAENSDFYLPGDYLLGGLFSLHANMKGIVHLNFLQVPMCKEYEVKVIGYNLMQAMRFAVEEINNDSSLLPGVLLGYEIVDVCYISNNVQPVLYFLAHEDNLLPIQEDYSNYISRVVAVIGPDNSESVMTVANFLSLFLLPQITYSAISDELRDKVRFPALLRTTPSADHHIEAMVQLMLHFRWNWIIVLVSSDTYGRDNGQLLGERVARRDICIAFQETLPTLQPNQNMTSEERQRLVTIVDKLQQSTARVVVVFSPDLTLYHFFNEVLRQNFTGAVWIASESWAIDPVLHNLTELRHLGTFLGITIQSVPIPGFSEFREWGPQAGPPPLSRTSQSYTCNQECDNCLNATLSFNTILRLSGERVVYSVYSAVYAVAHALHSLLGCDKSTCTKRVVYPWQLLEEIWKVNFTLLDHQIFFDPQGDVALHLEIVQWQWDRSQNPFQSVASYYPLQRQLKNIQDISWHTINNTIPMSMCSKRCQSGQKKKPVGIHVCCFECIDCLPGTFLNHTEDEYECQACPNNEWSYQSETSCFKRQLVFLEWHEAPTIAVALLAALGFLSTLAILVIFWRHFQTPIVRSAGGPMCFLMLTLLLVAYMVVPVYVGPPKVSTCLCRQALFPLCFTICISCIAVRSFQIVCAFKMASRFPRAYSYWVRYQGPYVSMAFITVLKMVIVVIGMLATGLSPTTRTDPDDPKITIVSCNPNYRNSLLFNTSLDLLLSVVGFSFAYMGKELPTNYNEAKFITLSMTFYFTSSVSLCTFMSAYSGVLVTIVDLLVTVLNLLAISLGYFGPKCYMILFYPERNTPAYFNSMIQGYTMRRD
# T1 sequence (Q7RTX0 21-852): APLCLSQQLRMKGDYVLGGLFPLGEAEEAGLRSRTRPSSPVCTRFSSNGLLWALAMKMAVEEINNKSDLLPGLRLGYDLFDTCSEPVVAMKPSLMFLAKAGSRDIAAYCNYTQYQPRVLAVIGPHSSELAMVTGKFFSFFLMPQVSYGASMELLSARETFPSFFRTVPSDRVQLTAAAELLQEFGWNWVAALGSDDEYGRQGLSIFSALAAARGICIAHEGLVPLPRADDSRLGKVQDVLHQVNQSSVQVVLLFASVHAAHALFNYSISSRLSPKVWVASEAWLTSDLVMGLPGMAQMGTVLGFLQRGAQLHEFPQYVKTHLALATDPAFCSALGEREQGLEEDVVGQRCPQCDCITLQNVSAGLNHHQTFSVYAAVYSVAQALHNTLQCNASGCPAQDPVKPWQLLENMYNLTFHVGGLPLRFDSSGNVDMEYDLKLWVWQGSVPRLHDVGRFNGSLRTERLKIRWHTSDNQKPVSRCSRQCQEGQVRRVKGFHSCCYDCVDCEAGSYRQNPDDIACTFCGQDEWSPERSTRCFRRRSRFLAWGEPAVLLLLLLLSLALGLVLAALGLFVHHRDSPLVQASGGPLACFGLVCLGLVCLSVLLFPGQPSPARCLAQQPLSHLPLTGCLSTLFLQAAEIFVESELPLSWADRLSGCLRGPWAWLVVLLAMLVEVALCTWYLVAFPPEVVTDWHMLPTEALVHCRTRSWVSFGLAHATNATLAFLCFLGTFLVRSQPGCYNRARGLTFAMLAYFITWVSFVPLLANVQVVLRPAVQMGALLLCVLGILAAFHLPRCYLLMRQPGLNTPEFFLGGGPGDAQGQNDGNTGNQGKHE
# T1R2/T1R3 receptors [3] = molecular target: T1, T1R2/T1R3 receptors; test: Activating or inhibiting effect on T1R2/T1R3 receptors according to concentration (same process as application example 3); type: cell-based; conditions: FIG. 4
# From the text: A stable cell line (HEK293TREX) extracted from human embryonic renal cells was manufactured with the help of the plasmid pIRESpuro3, coding for the G protein chimeras G15-Gi3. A further plasmid (pCDNA5-FRT), coding for the human TAS1R2 sequence, was also used. In this way it was possible to integrate the gene in a defined chromosomal region. The human TAS1R3 subunit of the human sweet taste receptor was cloned in pCDNA3-TO. This allowed the induction of the target gene using tetracycline. The stable, transfixed cell line was cultivated in high glucose content DMEM without tetracycline. For the measurements the cells were sown and cultivated (37° C., 5% CO2) in polylysine-coated 96-well titrimetric places (black with transparent bases) until they achieved an 80% confluence. […] The calcium mobilization by receptor stimulation by the test substances was measured in an automated fluorometer (fluorometric imaging plate reader FLIPR, Molecular Devices, Sunnyvale, Calif.). The test substances were measured in a concentration of 1 mmol/l or 0.1 mmol/l in C1 solution. All data were determined in two independent experiments, which were each repeated three times. The calcium signals obtained were corrected for the proportion of the mock cells and (using the formula ΔF/F=(F−F0)/F0) normalized on the starting intensity of the fluorescence prior to addition of the test substances (F0).
# [4] = test system: sweet taste intensity (in the oral cavity); test: Taste tests by a sensory panel (sweet taste intensity in the oral cavity); type: in vivo; conditions: tasting by sensory panel
# From the text: From this it can be concluded that during the tasting of the compounds of formulas (1) to (4) in the oral cavity no lactisole was released.
# [5] = Sucrose 5% + test substance 10 mg/l
# [6] = Sucrose 5%, test substance 10 mg/l
compound,measurement,setting,value
"CCCCCCOC(=O)C(C)Oc1ccc(OC)cc1 (stereo not drawn) [Compound of formula (1), 2-(4-methoxyphenoxy)-propanoic acid hexyl ester]",Sweet taste impression (1-10) Sample (B),[1]; Sucrose 5% + test substance 14 mg/l,5.0 ± 1
same,Change in sweet taste impression [%],"[1]; Sucrose 5%, test substance 14 mg/l",−10%
same,Antagonistic effect (inhibition) on the sweet taste receptor,T1R2/T1R3 receptors [2],do not themselves demonstrate any antagonistic effect
"COc1ccc(OC(C)C(=O)OCC(COC(=O)C(C)Oc2ccc(OC)cc2)OC(=O)C(C)Oc2ccc(OC)cc2)cc1 (stereo not drawn) [Compound of formula (2), 2-(4-methoxyphenoxy)propanoic acid-2,3-bis-[2-(4-methoxyphenoxy)-propionyloxy]-propyl ester]",Sweet taste impression (1-10) Sample (B),[1]; Naringin dihydrochalcone 50 mg/l + test substance 10 mg/l,5.6 ± 2.1
same,Change in sweet taste impression [%],"[1]; Naringin dihydrochalcone 50 mg/l, test substance 10 mg/l",9%
same,Sweet taste impression (1-10) Sample (B),[1]; [5],5.6 ± 1.5
same,Change in sweet taste impression [%],[1]; [6],3%
same,Antagonistic effect (inhibition) on the sweet taste receptor,T1R2/T1R3 receptors [2],do not themselves demonstrate any antagonistic effect
same,Antagonistic effect on the sweet taste receptor,T1R2/T1R3 receptors [3]; in the presence of aspartame or sucrose,does not demonstrate any antagonistic effect
same,Dose-effect curve for aspartame or saccharose,T1R2/T1R3 receptors [3]; in the presence of the compound,not altered
"CCCCOC(=O)C(C)Oc1ccc(OC)cc1 (stereo not drawn) [Compound of formula (4), 2-(4-methoxyphenoxy)propanoic acid butyl ester]",Sweet taste impression (1-10) Sample (B),[1]; Sucrose 5% + test substance 16 mg/l,5.6 ± 1.5
same,Change in sweet taste impression [%],"[1]; Sucrose 5%, test substance 16 mg/l",−5%
"COc1ccc(OC(C)C(=O)O)cc1 (stereo not drawn) [Lactisole, 2-(4-methoxyphenoxy)propanoic acid, reference compound]",Influence on the sweet taste intensity (in the oral cavity),[4],clear reduction in the sweet taste intensity
same,Sweet taste impression (1-10) Sample (B),[1]; [5],4.2 ± 1.4
same,Change in sweet taste impression [%],[1]; [6],−27%
